Assay results reported in ChEMBL document CHEMBL1201862, “PubChem BioAssay data set” (2004).
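Briefly, cells in 96-well plates were exposed to five compound concentrations for 48 h, and endpoints were estimated by linear interpolation. GI50 = concentration required for 50% inhibition of growth.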 Active and inactive are the calls of the source. No stated cut-off is given here; in the data, active = GI50 up to about 1.1 µM and inactive = higher.

How the values were obtained:
Test in all cases: NCI tumour cell line growth inhibition, 48 h
ACHN = system: ACHN
COLO 205 = system: COLO 205
HCT-116 = system: HCT-116
Hs-578T = system: Hs-578T
K562 = system: K562
KM12 = system: KM12
LOX IMVI = system: LOX IMVI
M14 = system: M14
MDA-MB-231 = system: MDA-MB-231
NCI-H23 = system: NCI-H23
NCI-H522 = system: NCI-H522
OVCAR-5 = system: OVCAR-5
OVCAR-8 = system: OVCAR-8
RXF 393 = system: RXF 393
SF-268 = system: SF-268
SF-295 = system: SF-295
SK-MEL-28 = system: SK-MEL-28
SK-MEL-2 = system: SK-MEL-2
SR = system: SR
T47D = system: T47D

CC1=NN(c2nc(N)nc(CN3CCOCC3)n2)C(C)(C)C1
GI50 (ACHN): 31.8 µM (inactive)
GI50 (COLO 205): 60.4 µM (inactive)
GI50 (HCT-116): > 100 µM (inactive)
GI50 (Hs-578T): > 100 µM (inactive)
GI50 (K562): > 100 µM (inactive)
GI50 (KM12): > 100 µM (inactive)
GI50 (LOX IMVI): 14.9 µM (inactive)
GI50 (M14): > 100 µM (inactive)
GI50 (MDA-MB-231): > 100 µM (inactive)
GI50 (NCI-H23): > 100 µM (inactive)
GI50 (NCI-H522): 14 µM (inactive)
GI50 (OVCAR-5): > 100 µM (inactive)
GI50 (OVCAR-8): > 100 µM (inactive)
GI50 (RXF 393): > 100 µM (inactive)
GI50 (SF-268): > 100 µM (inactive)
GI50 (SF-295): > 100 µM (inactive)
GI50 (SK-MEL-28): > 100 µM (inactive)
GI50 (SK-MEL-2): > 100 µM (inactive)
GI50 (SR): 30.1 µM (inactive)
GI50 (T47D): > 100 µM (inactive)

COC(=O)[C@@H](NC(=O)N(Cc1ccccc1)C[C@H](CC(C)C)NC(=O)[C@@H](NC(=O)OC(C)(C)C)C(C)C)C(C)C
GI50 (ACHN): > 100 µM (inactive)
GI50 (COLO 205): > 100 µM (inactive)
GI50 (HCT-116): > 100 µM (inactive)
GI50 (Hs-578T): 88.1 µM (inactive)
GI50 (K562): > 100 µM (inactive)
GI50 (KM12): > 100 µM (inactive)
GI50 (LOX IMVI): > 100 µM (inactive)
GI50 (M14): > 100 µM (inactive)
GI50 (MDA-MB-231): > 100 µM (inactive)
GI50 (NCI-H23): > 100 µM (inactive)
GI50 (NCI-H522): > 100 µM (inactive)
GI50 (OVCAR-5): > 100 µM (inactive)
GI50 (OVCAR-8): > 100 µM (inactive)
GI50 (RXF 393): > 100 µM (inactive)
GI50 (SF-268): > 100 µM (inactive)
GI50 (SF-295): > 100 µM (inactive)
GI50 (SK-MEL-28): > 100 µM (inactive)
GI50 (SK-MEL-2): > 100 µM (inactive)
GI50 (SR): > 100 µM (inactive)
GI50 (T47D): > 100 µM (inactive)

C=CCN1C(=O)/C(=C/c2ccc(C)cc2)NC1=S
GI50 (ACHN): > 100 µM (inactive)
GI50 (COLO 205): 63.5 µM (inactive)
GI50 (HCT-116): > 100 µM (inactive)
GI50 (Hs-578T): > 100 µM (inactive)
GI50 (K562): 41.9 µM (inactive)
GI50 (KM12): 97.7 µM (inactive)
GI50 (LOX IMVI): 63.2 µM (inactive)
GI50 (M14): 87.7 µM (inactive)
GI50 (MDA-MB-231): 60.1 µM (inactive)
GI50 (NCI-H23): 57.5 µM (inactive)
GI50 (NCI-H522): 43 µM (inactive)
GI50 (OVCAR-5): > 100 µM (inactive)
GI50 (OVCAR-8): > 100 µM (inactive)
GI50 (RXF 393): > 100 µM (inactive)
GI50 (SF-268): > 100 µM (inactive)
GI50 (SF-295): 75 µM (inactive)
GI50 (SK-MEL-28): > 100 µM (inactive)
GI50 (SK-MEL-2): > 100 µM (inactive)
GI50 (SR): 85.9 µM (inactive)
GI50 (T47D): 67.1 µM (inactive)

CCCCCCCC/C=C\CCCCCCC/C=C1/C[C@](/C=C/C(=O)OC)(CO)OC1=O
GI50 (ACHN): 3.11 µM (inactive)
GI50 (COLO 205): 1.57 µM (inactive)
GI50 (HCT-116): 4.56 µM (inactive)
GI50 (Hs-578T): 0.923 µM (active)
GI50 (K562): 0.561 µM (active)
GI50 (KM12): 10.9 µM (inactive)
GI50 (LOX IMVI): 1.6 µM (inactive)
GI50 (M14): 2.05 µM (inactive)
GI50 (MDA-MB-231): 3.99 µM (inactive)
GI50 (NCI-H23): 11.2 µM (inactive)
GI50 (NCI-H522): 5.6 µM (inactive)
GI50 (OVCAR-5): 7.46 µM (inactive)
GI50 (OVCAR-8): 6.65 µM (inactive)
GI50 (RXF 393): 14.2 µM (inactive)
GI50 (SF-268): 6.9 µM (inactive)
GI50 (SF-295): 2.29 µM (inactive)
GI50 (SK-MEL-28): 2.77 µM (inactive)
GI50 (SK-MEL-2): 13.5 µM (inactive)
GI50 (SR): 3.92 µM (inactive)
GI50 (T47D): 7.38 µM (inactive)

CN(C)c1ccc(C(=N/N=C2\C(=O)Nc3ccccc32)c2ccc(N(C)C)cc2)cc1
GI50 (ACHN): 1.04 µM (active)
GI50 (COLO 205): 0.358 µM (active)
GI50 (HCT-116): 0.33 µM (active)
GI50 (Hs-578T): 0.836 µM (active)
GI50 (K562): 0.196 µM (active)
GI50 (KM12): 0.278 µM (active)
GI50 (LOX IMVI): 0.748 µM (active)
GI50 (M14): 0.348 µM (active)
GI50 (MDA-MB-231): 0.767 µM (active)
GI50 (NCI-H23): 1.73 µM (inactive)
GI50 (NCI-H522): 0.167 µM (active)
GI50 (OVCAR-5): 3.72 µM (inactive)
GI50 (OVCAR-8): 1 µM (active)
GI50 (RXF 393): 0.172 µM (active)
GI50 (SF-268): 0.942 µM (active)
GI50 (SF-295): 0.308 µM (active)
GI50 (SK-MEL-28): 3.17 µM (inactive)
GI50 (SK-MEL-2): 0.248 µM (active)
GI50 (SR): 0.0262 µM (active)
GI50 (T47D): 0.771 µM (active)

NC(C(=O)O)C(O)c1c[nH]cn1 (stereo not given)
GI50 (ACHN): > 100 µM (inactive)
GI50 (COLO 205): > 100 µM (inactive)
GI50 (HCT-116): > 100 µM (inactive)
GI50 (Hs-578T): > 100 µM (inactive)
GI50 (K562): > 100 µM (inactive)
GI50 (KM12): > 100 µM (inactive)
GI50 (LOX IMVI): > 100 µM (inactive)
GI50 (M14): > 100 µM (inactive)
GI50 (MDA-MB-231): > 100 µM (inactive)
GI50 (NCI-H23): > 100 µM (inactive)
GI50 (NCI-H522): > 100 µM (inactive)
GI50 (OVCAR-5): > 100 µM (inactive)
GI50 (OVCAR-8): > 100 µM (inactive)
GI50 (RXF 393): > 100 µM (inactive)
GI50 (SF-268): > 100 µM (inactive)
GI50 (SF-295): > 100 µM (inactive)
GI50 (SK-MEL-28): > 100 µM (inactive)
GI50 (SK-MEL-2): > 100 µM (inactive)
GI50 (SR): > 100 µM (inactive)
GI50 (T47D): > 100 µM (inactive)

CCN(CC)c1ccc2cc(C(N)=O)/c(=N/c3ccc(F)cc3)oc2c1
GI50 (ACHN): 40.8 µM (inactive)
GI50 (COLO 205): > 100 µM (inactive)
GI50 (HCT-116): 5.07 µM (inactive)
GI50 (Hs-578T): 47.9 µM (inactive)
GI50 (K562): > 100 µM (inactive)
GI50 (KM12): 17.6 µM (inactive)
GI50 (LOX IMVI): 46.1 µM (inactive)
GI50 (M14): > 100 µM (inactive)
GI50 (MDA-MB-231): 14.5 µM (inactive)
GI50 (NCI-H23): 13.4 µM (inactive)
GI50 (NCI-H522): 11.6 µM (inactive)
GI50 (OVCAR-5): > 100 µM (inactive)
GI50 (OVCAR-8): 22.8 µM (inactive)
GI50 (RXF 393): 22.8 µM (inactive)
GI50 (SF-268): 39.5 µM (inactive)
GI50 (SF-295): 10.3 µM (inactive)
GI50 (SK-MEL-28): > 100 µM (inactive)
GI50 (SK-MEL-2): 35.7 µM (inactive)
GI50 (SR): 4.65 µM (inactive)
GI50 (T47D): 14.2 µM (inactive)
